Values of other authors as cited in patent US11136546B2, “Recombinant Escherichia coli and application of the same” (Zhengzhou Zhonghao Biological Technology Co., Ltd., priority 2018, dated 2021).
Where no end group is shown, it is not given here.

Key:
pathogenic E. coli = conditions: in vitro bacteriostatic tests; a variety of pathogenic E. coli
Salmonella = conditions: in vitro bacteriostatic tests

For “Microcin J25: antibacterial lasso peptide consisting of 21 amino acids (SEQ ID No.: 4), obtained by fermentation of genetically engineered Escherichia coli (GGAGHVPEYFVGIGTPISFYG; also: lasso cyclisation, places not given here)”, the “killing of pathogenic E. coli” value (pathogenic E. coli) is given as “able to kill” and the “killing of Salmonella” value (Salmonella) is given as “able to kill”.
